In patent US11390580B2, “Anti-fungals targeting the synthesis of fungal shingolipids” (THE RESEARCH FOUNDATION FOR THE STATE UNIVERSITY OF NEW YORK, priority 2014, dated 2022):
≈ marks a conversion by molar mass, not a printed value. Where “and” joins values, the source holds several entries; their conditions need not be identical. Equal values may be shown once.

Assays:
Cryptococcus neoformans = experiment: In vitro susceptibility testing (MIC); format: cell-based
Cryptococcus gattii = experiment: In vitro susceptibility testing (MIC); format: cell-based
Candida glabrata = experiment: In vitro susceptibility testing (MIC); format: cell-based
Candida parapsilosis = experiment: In vitro susceptibility testing (MIC); format: cell-based; settings: for BHBM 24 Hr 50% / BHBM 48 Hr 50%: MIC, FTL strains
Coccidioides spp = experiment: microbe, parasite or virus in culture; format: cell-based; settings: for BHBM 48 Hr 50%: MIC, FTL strains
A549 cell line = experiment: In vitro toxicity; format: cell-based
C. neoformans (H99) = experiment: Transmission electron microscopy of treated cells; settings: 4 μg/mL, 6 hours
C. neoformans = experiment: Synergistic assay (fractional inhibitory index, FIC)

Q: For `Cc1ccccc1C(=O)NN=Cc1ccc(O)c(Br)c1` [BHBM, N′-(3-bromo-4-hydroxybenzylidene)-2-methylbenzohydrazide], which “in vitro activity” value (Cryptococcus neoformans) is on record?
A: good in vitro activity

Q: What about the MIC range (Cryptococcus neoformans; 4 MDP Lab strains, clinical isolates resistant to fluconazole) of the same molecule?
A: 1 to 2 µg/mL

Q: What about the MIC range (Cryptococcus neoformans; 8 MDP Lab strains, clinical isolates sensitive to fluconazole) of the same molecule?
A: 0.5 to 2 µg/mL

Q: And the MIC range (Cryptococcus neoformans; 13 Fungus Testing Lab strains)?
A: 0.25 to 8 µg/mL

Q: What about the MFC (Cryptococcus neoformans; Cryptococcus neoformans, read-out: MFC (minimum fungicidal concentration)) of the same molecule?
A: 4 µg/mL (≈ 12 µM)

Q: And the “BHBM 72 Hr 50%” value (Cryptococcus neoformans; MIC, FTL strains)?
A: 8 and >16 and 16

Q: What about the “sensitivity of Fluconazole-resistant strains” value (Cryptococcus neoformans; all Fluconazole-resistant C. neoformans strains) of the same molecule?
A: sensitive

Q: And the “in vitro activity” value (Cryptococcus gattii)?
A: good in vitro activity

Q: What about the MIC range (Cryptococcus gattii; 3 MDP Lab strains) of the same molecule?
A: 0.5 to 1 µg/mL

Q: What about the MIC range (Cryptococcus gattii; 10 Fungus Testing Lab strains) of the same molecule?
A: 0.5 to 2 µg/mL

Q: What about the “BHBM 72 Hr 50%” value (Cryptococcus gattii; MIC, FTL strains) of the same molecule?
A: 16 and >16 and 8

Q: What about the MIC range (Candida glabrata; 10 Fungus Testing Lab strains) of the same molecule?
A: 0.125 to 2 µg/mL

Q: What about the MIC (Candida glabrata; Nakaseomyces glabratus, read-out: MIC (moderately active)) of the same molecule?
A: 8 to 16 µg/mL (≈ 24 to 48 µM)

Q: What about the “in vitro activity” value (Candida parapsilosis) of the same molecule?
A: not active

Q: And the MIC range (Candida parapsilosis; 3 MDP Lab strains)?
A: >32 µg/mL

Q: What about the “BHBM 24 Hr 50%” value (Candida parapsilosis) of the same molecule?
A: >16

Q: What about the “BHBM 48 Hr 50%” value (Candida parapsilosis) of the same molecule?
A: >16

Q: What about the “BHBM 24 Hr 50%” value (Candida parapsilosis; first listing r7-r78) of the same molecule?
A: >16

Q: And the “BHBM 48 Hr 50%” value (Candida parapsilosis; first listing r7-r78)?
A: >16

Q: And the MIC range (Candida parapsilosis; QC, Fungus Testing Lab)?
A: >16 µg/mL

Q: And the MIC range (Coccidioides spp; 10 Fungus Testing Lab strains)?
A: 8 to 16 µg/mL

Q: What about the MIC (Coccidioides spp; Coccidioides, read-out: MIC (moderately active)) of the same molecule?
A: 8 to 16 µg/mL (≈ 24 to 48 µM)

Q: What about the “BHBM 48 Hr 50%” value (Coccidioides spp) of the same molecule?
A: 16 and 8 and >16

Q: And the “BHBM 48 Hr 50%” value (Coccidioides spp; first listing r7-r78)?
A: 8 and 16

Q: What about the toxicity (A549 cell line) of the same molecule?
A: slight to moderate toxicity

Q: And the “improvement in survival, low dose vs vehicle treated negative controls” value (P. murina; 0.8 mg/Kg/twice a day, 13 days)?
A: the difference was not significant

Q: And the “survival, low dose vs high dose” value (P. murina; 0.8 or 1.6 mg/Kg/twice a day, 13 days)?
A: low dose mice showed improved survival over the high dose mice

Q: What about the “number of asci and nuclei in lung homogenates vs negative control” value (P. murina; 13 days of treatment) of the same molecule?
A: No significant differences

Q: What about the “number of vacuoles per μm^2 of cell surface area” value (C. neoformans (H99)) of the same molecule?
A: 0.84±0.58

Q: What about the FIC index (C. neoformans; combined with Amphotericin B) of the same molecule?
A: 0.75

Q: What about the FIC index (C. neoformans; combined with Fluconazole) of the same molecule?
A: 0.38

Q: What about the interaction (C. neoformans; combined with Tunicamycin) of the same molecule?
A: synergistic

Q: And the FIC index (C. neoformans; combined with caspofungin)?
A: 1
